{"source": "patent US20120310117A1", "about": "“METHOD FOR […] AND RELATED […]” (The McLean Hospital Corporation, priority 2009, published 2012)", "key": {"[1]": {"conditions": "cited from earlier work"}, "dopamine reuptake": {"tested_on": "dopamine reuptake", "conditions": "cited from earlier work"}, "[2]": {"conditions": "2.5 mg of Focalin has the same therapeutic benefit as 5.0 mg of Ritalin; cited from earlier work"}, "[3]": {"tested_on": "boys 9-12 years of age with ADHD combined subtype", "assay": "Infrared motion analysis of head marker movements during a 15-minute cognitive control task (Quotient Test), PRE and 120 minutes POST probe dose MPH", "type": "in vivo, human", "procedure": "Data were analyzed from a study approved and monitored by the McLean Hospital Institutional Review Board […]. The ADHD sample consisted of 62 boys between 9-12 years of age who met Diagnostic and Statistical Manual of Mental Disorders, 4th edition (DSM-IV) (Diagnostic and statistical manual of mental disorders: DSM-IV.—4th ed., text revision. Washington, D.C: American Psychiatric Association; 2000) criteria for ADHD combined subtype. Subjects were recruited from the general population via newspaper advertisement for hyperactive boys who were currently or previously treated with MPH, as the protocol called from them to receive a moderately large probe dose of immediate release MPH. This was easier to justify in subjects known to tolerate MPH without untoward effects. Parental written consent and child verbal assent were obtained. […] Seventy-three boys went through the screening procedures, which included structured interviews for DSM-IV Axis I psychiatric diagnoses using K-SADS-E (Orvaschel H, Puig-Antich J. Schedule for Affective Disorder and Schizophrenia for School-Age Children, Epidemiologic Version, Fifth Revision. Fort Lauderdale, Fla.: Nova Southeastern University; 1994); and parent ratings on the Conners' Hyperactivity Index (Conners et al., J Abnorm Child Psychol. 26:257 (1998)) and Achenbach Child Behavior Checklist (CBCL) (Achenbach T. Integrative Guide to the 1991 CBCL/4-18, YSR, and TRF Profiles. Burlington, Vt.: University of Vermont, Department of Psychology; 1991). Children with ADHD could not have any current major mood disorder, psychosis, tic disorder, a major anxiety disorder, or mental retardation. Children with oppositional defiant disorder (ODD), or reported learning disorders, could participate. From this pool of subjects, 11 were excluded from further participation. […] One subject was disqualified for drug use, another was disqualified for current antidepressant treatment of night terrors, and one withdrew before the probe dose. […] In this sample, there were 19 boys with comorbid ODD, 2 with current dysthymia, 4 with learning disorders, and 3 with past major depression or past anxiety disorders. […] Sixty of these subjects were previously included in a study examining fluctuations in attentional state (Teicher et al., J Child Adolesc Psychopharmacol. 14:219 (2004)), and 48 were included in a study on pharmacokinetic-pharmacodynamic response to methylphenidate (Teicher et al., J Child Adolesc Psychopharmacol. 16:416 (2006)).\nFor comparison, we analyzed data from a representative non-clinical contrast group. This group consisted of 62 male students, randomly selected from a sample of 1168 subjects (6-14 years of age) tested at local public schools using teacher ratings and a computerized attention task with infrared motion analysis (Teicher et al., J Am Acad Child Adolesc Psychiatry 35:334 (1996); Quotient Test, BioBehavioral Diagnostic Company, Cambridge, Mass.). This large-scale database development study was approved by the McLean Hospital IRB and the school administrators. Parents provided written consent and children gave verbal assent to participate. Subjects selected from this sample were male, and matched 1:1 with the ADHD subjects by age to the nearest month (11.0±1.0 years). The selection criteria applied for this analysis was that they needed to have Conners' Teacher Ratings (Conners C K. American Journal of Psychiatry 126:884 (1969)) that were within ±1 SD of the mean of peers their own age and gender (i.e., T score<60), to help exclude subjects with potential ADHD.\nChildren with ADHD were tested prior to (PRE) and 120-minutes following (POST) a probe dose of 0.4 mg/kg MPH. Contrast subjects only received a single Quotient Test, which was specifically designed to provide objective measures of hyperactivity, inattention and impulsivity (Teicher et al., J Am Acad Child Adolesc Psychiatry 35:334 (1996)). […]"}}, "data": [{"smiles": "CNCC[C@@H](Oc1ccccc1C)c1ccccc1", "note": "[Atomoxetine]", "values": [{"measurement": "coverage of symptoms associated with ADHD", "setting": "[1]; clinical trials in adults and children", "value": 24, "unit": "h"}]}, {"smiles": "CC(NC(C)(C)C)C(=O)c1cccc(Cl)c1", "note": "(stereo not drawn) [Bupropion]", "values": [{"measurement": "potency as inhibitor of dopamine reuptake relative to norepinephrine reuptake", "setting": "dopamine reuptake", "value": "about twice as potent"}]}, {"smiles": "COC(=O)[C@H](c1ccccc1)[C@H]1CCCCN1", "note": "[Focalin]", "values": [{"measurement": "potency relative to methylphenidate", "setting": "[2]", "value": "twice as potent"}, {"measurement": "onset of action, in words", "setting": "[1]; after administration", "value": "immediately"}]}, {"smiles": "COC(=O)C(c1ccccc1)C1CCCCN1", "note": "(stereo not drawn) [MPH, methylphenidate]", "values": [{"measurement": "MLE in ADHD after MPH relative to contrast subjects", "setting": "[3]; ADHD POST vs contrast", "value": 4.8, "unit": "fold"}, {"measurement": "ROC Area for MLE, ADHD POST vs contrast subjects", "setting": "[3]; ADHD POST vs contrast", "value": 0.995}, {"measurement": "ROC Area for β, ADHD POST vs contrast subjects", "setting": "[3]; ADHD POST vs contrast", "value": 0.850}, {"measurement": "effect size d' for MLE, ADHD after MPH vs contrast subjects", "setting": "[3]; ADHD POST vs contrast", "value": 3.1}, {"measurement": "percentage of ADHD subjects with evidence for a deterministic chaotic component to head movements after MPH", "setting": "[3]; MLE vs surrogate data, fell from 84% PRE, 41/62 POST", "value": 66, "unit": "%"}, {"measurement": "baseline and spike amplitudes and spike numbers relative to contrast group", "setting": "[3]; Max-Pass, ADHD POST vs contrast controls", "value": "suppressed to at or below contrast group levels"}, {"measurement": "reduction of spike amplitude", "setting": "[3]; Max-Pass, POST (120 min after 0.4 mg/kg MPH) vs PRE", "value": 52, "unit": "%"}, {"measurement": "reduction of baseline amplitude", "setting": "[3]; Max-Pass, POST (120 min after 0.4 mg/kg MPH) vs PRE, 62 ADHD boys", "value": 63, "unit": "%"}, {"measurement": "reduction of number of spikes", "setting": "[3]; Max-Pass, POST vs PRE", "value": 35, "unit": "%"}, {"measurement": "effect size of MPH on ApEn, β and MLE", "setting": "[3]; POST vs PRE", "value": "1.0-1.2"}, {"measurement": "within subject reduction in composite inhibitory measures", "setting": "[3]; baseline and spike amplitude, POST vs PRE", "value": "58.3%±39.9%"}, {"measurement": "ADHD subjects POST with evidence for a deterministic component to head positions", "setting": "[3]; correlation dimension method with surrogate data, 56/62 PRE", "value": "62/62"}, {"measurement": "inhibitory measures POST MPH vs controls", "setting": "[3]; first 5 minutes of the test", "value": "did not differ from controls"}, {"measurement": "non-linear measures POST MPH vs controls", "setting": "[3]; first 5 minutes of the test", "value": "remained distinctly different than controls"}, {"measurement": "Spike area (SpArea) PST AVG", "setting": "[3]; post-medication ADHD subjects, N 62, PRE AVG 100897.28, CTRL AVG 42396.0034", "value": 36631.5066}, {"measurement": "baseline and spike amplitudes relative to contrast group", "setting": "[3]; spike detection by cluster analysis, ADHD POST vs contrast controls", "value": "at or below contrast group levels"}, {"measurement": "reduction in composite measures of positional stability", "setting": "[3]; β, MLE, POST vs PRE", "value": "16.6%±19.2%"}]}]}
